Reference: PubChem BioAssay (NCI)
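Briefly, cells in 96-well plates were exposed to five compound concentrations for 48 h, and endpoints were estimated by linear interpolation. TGI: total growth inhibition.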

How the values were obtained:
Assay in all cases: DTP human tumour cell line panel, 48 h
[1] = system: HCT-15 colon
[2] = system: HL-60(TB) leukemia
[3] = system: HOP-62 NSCLC
[4] = system: M14 melanoma
[5] = system: MCF7 breast
[6] = system: MOLT-4 leukemia
[7] = system: OVCAR-4 ovarian
[8] = system: U251 CNS
[9] = system: RPMI-8226 leukemia
[10] = system: SF-295 CNS
[11] = system: SK-OV-3 ovarian
[12] = system: BT-549 breast

| Structure (SMILES) | TGI [1] [µM] | TGI [2] [µM] | TGI [3] [µM] | TGI [4] [µM] | TGI [5] [µM] | TGI [6] [µM] | TGI [7] [µM] | TGI [8] [µM] | TGI [9] [µM] | TGI [10] [µM] | TGI [11] [µM] | TGI [12] [µM] |
| --- | --- | --- | --- | --- | --- | --- | --- | --- | --- | --- | --- | --- |
| CC(C)C1=CC23CCC4C(C)(C(=O)O)CCCC4(C)C2CC1C1C(=O)N(c2cccc(N4C(=O)C5C6CC7C8(C)CCCC(C)(C(=O)O)C8CCC7(C=C6C(C)C)C5C4=O)c2)C(=O)C13 (stereo not drawn) | 26.9 | 30.7 | 25.2 | 25.5 | 16 | 40.1 | > 100 | 11 | – | – | – | – |
| CC(C)(C)C(=O)CC(=O)C(F)(F)C(F)(F)C(F)(F)F.[Ag] | 31.3 | 40.8 | 50.9 | 31.1 | – | 44.8 | 30.5 | 52.8 | 44.5 | 39.2 | 44.5 | – |
| Cc1ccc(NC(=S)N=Nc2c(O)[nH]c3ccccc23)cc1 | > 100 | > 100 | > 100 | > 100 | > 100 | > 100 | > 100 | > 100 | > 100 | > 100 | > 100 | – |
| C=C(C)C1CC2=C(O1)C(=O)c1cccc(O)c1C2=O (stereo not drawn) | 4.36 | – | 2.94 | 2.43 | 1.96 | 0.422 | 0.926 | 3.01 | 1.22 | 2.73 | 2.86 | 1.63 |
| CCCCC(N)CSSCC(N)CCCC (stereo not drawn) | 63.2 | 40.1 | 95.4 | 38.2 | – | 47.9 | 32.6 | – | 61.5 | > 100 | > 100 | – |
| COc1ccc(/C=C2/SC(c3c(O)ccc4ccccc34)N(NC(=O)CCCCCCCCC(=O)NN3C(=O)/C(=C\c4ccc(OC)c(OC)c4)SC3c3c(O)ccc4ccccc34)C2=O)cc1OC (stereo not drawn) | > 100 | – | > 39.8 | – | > 100 | 2.9 | > 100 | 96.8 | – | > 100 | > 52.9 | > 100 |
| C=CCN(c1cc(OC)c2c(c1[N+](=O)[O-])C(C)(SC)C(=O)N2)S(C)(=O)=O (stereo not drawn) | > 100 | – | – | – | > 100 | – | > 100 | > 100 | > 100 | > 100 | > 100 | > 100 |
| O=C(c1cccc2cc(O)ccc12)c1cn(CCN2CCOCC2)c2ccccc12 | – | 55.5 | 46.1 | 36.9 | 66.8 | 62.9 | – | – | 68.8 | – | – | 56.9 |
| O=P(O)(O)CC1OC(CO)C(O)C1O (stereo not drawn) | > 100 | > 100 | – | > 100 | > 100 | > 100 | > 100 | > 100 | – | > 100 | > 100 | > 100 |
| CCOC1=NC(C(F)(F)F)(C(F)(F)F)N=C(N2CCCCC2)O1 | > 100 | > 100 | > 100 | > 100 | > 100 | > 100 | > 100 | > 100 | > 100 | > 100 | – | – |
